Results from ChEMBL document CHEMBL4390667, “Novel tacrine-tryptophan hybrids: Multi-target directed ligands as potential treatment for Alzheimer's disease” (Eur J Med Chem, 2019).

Assays:
[1] = target: Acetylcholinesterase (Homo sapiens, UniProt P22303)
Description: Inhibition of human recombinant AChE using acetylthiocholine iodide as substrate preincubated for 5 mins followed by substrate addition and measured over 2 mins by UV-Vis spectrophotometric analysis based Ellman's method

[2] = target: Cholinesterase (Homo sapiens, UniProt P06276)
Description: Inhibition of human recombinant BChE using butyrylthiocholine iodide as substrate preincubated for 5 mins followed by substrate addition and measured over 2 mins by UV-Vis spectrophotometric analysis based Ellman's method

[3] = target: Nitric oxide synthase 1 (Rattus norvegicus, UniProt P29476)
Description: Inhibition of nNOS in Wistar rat cortical homogenates incubated for 30 mins

[4] = pampa, pH 7.4, 100 µM
Description: Effective permeability of the compound in PBS buffer at pH 7.4 at 100 uM after 3 to 6 hrs by PAMPA

[5] = test system: CHO-K1; assay: cells; details: Cricetulus griseus, CHO-K1, 24 h
Description: Cytotoxicity against CHOK1 cells assessed as reduction in cell viability incubated for 24 hrs by MTT assay

[6] = test system: HepG2; assay: cells; details: Homo sapiens, HepG2, 24 h
Description: Cytotoxicity against human HepG2 cells assessed as reduction in cell viability incubated for 24 hrs by MTT assay

Cholinesterase, sequence (P06276 whole entry): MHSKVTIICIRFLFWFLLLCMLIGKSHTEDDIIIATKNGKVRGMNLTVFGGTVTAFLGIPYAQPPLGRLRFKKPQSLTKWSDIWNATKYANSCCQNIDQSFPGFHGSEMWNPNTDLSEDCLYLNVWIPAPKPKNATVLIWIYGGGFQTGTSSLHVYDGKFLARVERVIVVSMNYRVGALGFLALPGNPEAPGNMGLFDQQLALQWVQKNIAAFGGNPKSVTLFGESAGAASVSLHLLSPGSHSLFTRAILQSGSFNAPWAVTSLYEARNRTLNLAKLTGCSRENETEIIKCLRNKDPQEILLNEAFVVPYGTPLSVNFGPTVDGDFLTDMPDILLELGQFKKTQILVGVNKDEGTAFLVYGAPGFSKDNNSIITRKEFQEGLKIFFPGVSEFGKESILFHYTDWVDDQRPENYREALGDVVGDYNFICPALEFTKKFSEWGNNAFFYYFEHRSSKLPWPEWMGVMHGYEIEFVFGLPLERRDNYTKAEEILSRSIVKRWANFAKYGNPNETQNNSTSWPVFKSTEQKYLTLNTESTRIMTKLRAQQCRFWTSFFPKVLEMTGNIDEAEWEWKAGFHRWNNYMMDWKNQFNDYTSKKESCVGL
Acetylcholinesterase, sequence (P22303 whole entry): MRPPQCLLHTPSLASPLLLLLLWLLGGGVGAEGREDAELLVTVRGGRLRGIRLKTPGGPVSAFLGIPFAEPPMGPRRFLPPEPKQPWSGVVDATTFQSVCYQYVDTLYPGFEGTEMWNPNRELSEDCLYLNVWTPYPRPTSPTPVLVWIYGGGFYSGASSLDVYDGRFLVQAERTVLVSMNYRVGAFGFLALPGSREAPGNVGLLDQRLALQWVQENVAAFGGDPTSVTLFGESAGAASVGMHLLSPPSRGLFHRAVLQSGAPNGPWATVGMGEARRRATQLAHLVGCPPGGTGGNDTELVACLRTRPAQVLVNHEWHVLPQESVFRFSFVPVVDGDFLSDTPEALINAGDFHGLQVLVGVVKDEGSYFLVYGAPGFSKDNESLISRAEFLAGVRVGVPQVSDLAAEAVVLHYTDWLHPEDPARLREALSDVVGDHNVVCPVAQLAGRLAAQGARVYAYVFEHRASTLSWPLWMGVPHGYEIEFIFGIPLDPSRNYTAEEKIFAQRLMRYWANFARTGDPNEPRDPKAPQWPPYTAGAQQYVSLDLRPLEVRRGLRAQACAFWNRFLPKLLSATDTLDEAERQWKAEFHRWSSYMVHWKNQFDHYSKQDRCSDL
Nitric oxide synthase 1, sequence (P29476 whole entry, looked up): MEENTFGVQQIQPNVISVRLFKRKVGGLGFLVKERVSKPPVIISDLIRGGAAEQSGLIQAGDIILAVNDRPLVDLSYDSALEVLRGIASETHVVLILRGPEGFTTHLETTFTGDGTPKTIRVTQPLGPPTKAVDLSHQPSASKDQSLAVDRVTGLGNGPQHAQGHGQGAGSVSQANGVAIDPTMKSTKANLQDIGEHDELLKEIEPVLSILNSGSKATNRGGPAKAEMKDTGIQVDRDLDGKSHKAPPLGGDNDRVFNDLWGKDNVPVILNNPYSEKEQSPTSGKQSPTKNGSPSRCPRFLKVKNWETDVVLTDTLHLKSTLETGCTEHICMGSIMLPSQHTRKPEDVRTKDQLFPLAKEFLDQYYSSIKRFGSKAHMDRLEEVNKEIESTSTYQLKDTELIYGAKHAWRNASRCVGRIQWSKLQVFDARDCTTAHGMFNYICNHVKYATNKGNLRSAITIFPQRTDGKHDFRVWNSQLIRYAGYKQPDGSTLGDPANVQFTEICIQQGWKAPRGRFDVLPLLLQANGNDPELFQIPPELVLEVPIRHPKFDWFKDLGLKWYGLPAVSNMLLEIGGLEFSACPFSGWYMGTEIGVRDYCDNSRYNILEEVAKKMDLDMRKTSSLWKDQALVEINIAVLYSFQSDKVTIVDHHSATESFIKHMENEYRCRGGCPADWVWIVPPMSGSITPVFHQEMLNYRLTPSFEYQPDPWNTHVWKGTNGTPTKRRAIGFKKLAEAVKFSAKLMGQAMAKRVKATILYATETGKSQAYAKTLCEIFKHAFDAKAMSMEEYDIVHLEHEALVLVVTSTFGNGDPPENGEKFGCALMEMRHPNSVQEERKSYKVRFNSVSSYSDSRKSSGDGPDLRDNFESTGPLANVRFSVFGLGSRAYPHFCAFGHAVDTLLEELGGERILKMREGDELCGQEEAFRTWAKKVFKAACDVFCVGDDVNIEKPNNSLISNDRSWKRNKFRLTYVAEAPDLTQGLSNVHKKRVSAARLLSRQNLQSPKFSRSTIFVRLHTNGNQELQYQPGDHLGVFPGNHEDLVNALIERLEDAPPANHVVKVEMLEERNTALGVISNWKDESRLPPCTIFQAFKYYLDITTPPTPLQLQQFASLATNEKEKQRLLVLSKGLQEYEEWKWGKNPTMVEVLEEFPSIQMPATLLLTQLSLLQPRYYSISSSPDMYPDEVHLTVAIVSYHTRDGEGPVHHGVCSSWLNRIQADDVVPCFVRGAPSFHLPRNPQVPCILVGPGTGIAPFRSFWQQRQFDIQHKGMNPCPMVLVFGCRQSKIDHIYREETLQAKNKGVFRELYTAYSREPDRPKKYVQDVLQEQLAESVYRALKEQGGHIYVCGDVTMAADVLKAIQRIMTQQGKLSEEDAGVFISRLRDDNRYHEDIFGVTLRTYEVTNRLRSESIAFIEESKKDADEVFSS

**Q.** Which results are given for `Cl.Cl.N[C@@H](Cc1c[nH]c2ccccc12)C(=O)NCCCCCNc1c2c(nc3ccccc13)CCCC2`?
**A.** IC50 [1]: 0.32 µM; IC50 [2]: 0.023 µM; IC50 [3]: 26 µM; permeability [4]: Impermeable; IC50 [5]: 83 µM

**Q.** Which IC50 [1] does the source give for `Cl.Cl.N[C@H](Cc1c[nH]c2ccccc12)C(=O)NCCCCCCNc1c2c(nc3cc(Cl)ccc13)CCCC2` here?
**A.** The IC50 was 0.0069 µM.

**Q.** What about the IC50 [2] of the same compound?
**A.** Its IC50 is 0.14 µM.

**Q.** What about the IC50 [3] of the same compound?
**A.** Its IC50 is 26 µM.

**Q.** And the permeability [4]?
**A.** The permeability was “Permeable”.

**Q.** And the IC50 [5]?
**A.** The IC50 was 15 µM.

**Q.** What about the IC50 [6] of the same compound?
**A.** Its IC50 is 4.2 µM.

**Q.** With `Cl.Cl.N[C@@H](Cc1c[nH]c2ccccc12)C(=O)NCCCCCCNc1c2c(nc3ccccc13)CCCC2` as the compound, how does the IC50 [1] read?
**A.** The IC50 was 0.12 µM.

**Q.** What about the IC50 [2] of the same compound?
**A.** The IC50 was 0.0039 µM.

**Q.** What about the IC50 [3] of the same compound?
**A.** The IC50 was 33 µM.

**Q.** And the permeability [4]?
**A.** The permeability was “Impermeable”.

**Q.** What about the IC50 [5] of the same compound?
**A.** The IC50 was 90 µM.

**Q.** And the IC50 [6]?
**A.** Its IC50 is 26 µM.

**Q.** Which IC50 [1] does the source give for `Cl.Cl.N[C@@H](Cc1c[nH]c2ccccc12)C(=O)NCCCCCCCNc1c2c(nc3cc(Cl)ccc13)CCCC2` here?
**A.** The IC50 was 0.019 µM.

**Q.** And the IC50 [2]?
**A.** Its IC50 is 0.052 µM.

**Q.** And the IC50 [3]?
**A.** The IC50 was 27 µM.

**Q.** What about the permeability [4] of the same compound?
**A.** The permeability was “Permeable”.

**Q.** What about the IC50 [5] of the same compound?
**A.** Its IC50 is 24 µM.

**Q.** And the IC50 [6]?
**A.** The IC50 was 6 µM.

**Q.** Which IC50 [1] does the source give for `Cl.Cl.NC(Cc1c[nH]c2ccccc12)C(=O)NCCCCCCNc1c2c(nc3cc(Cl)ccc13)CCCC2` (racemic) here?
**A.** Its IC50 is 0.0074 µM.

**Q.** And the IC50 [2]?
**A.** The IC50 was 0.013 µM.

**Q.** What about the IC50 [3] of the same compound?
**A.** Its IC50 is 33 µM.

**Q.** And the permeability [4]?
**A.** Its permeability is “Permeable”.

**Q.** And the IC50 [5]?
**A.** The IC50 was 21 µM.

**Q.** What about the IC50 [6] of the same compound?
**A.** The IC50 was 5.1 µM.

**Q.** What does the source list for `N[C@@H](Cc1c[nH]c2ccccc12)C(=O)NCCCCCCCCNc1c2c(nc3ccccc13)CCCC2`?
**A.** IC50 [1]: 0.076 µM; IC50 [2]: 0.064 µM; IC50 [3]: 37 µM; IC50 [5]: 47 µM; IC50 [6]: 9.3 µM

**Q.** Which IC50 [1] does the source give for `N[C@@H](Cc1c[nH]c2ccccc12)C(=O)NCCNc1c2c(nc3cc(Cl)ccc13)CCCC2` here?
**A.** The IC50 was 0.16 µM.

**Q.** And the IC50 [2]?
**A.** Its IC50 is 0.34 µM.

**Q.** And the IC50 [3]?
**A.** Its IC50 is 39 µM.

**Q.** And the IC50 [5]?
**A.** Its IC50 is 26 µM.

**Q.** What does the source list for `COc1ccc2nc3c(c(NCCCCCCCCNC(=O)[C@@H](N)Cc4c[nH]c5ccccc45)c2c1)CCCC3`?
**A.** IC50 [1]: 1.3 µM; IC50 [2]: 0.13 µM; IC50 [3]: 45 µM; IC50 [5]: 43 µM

**Q.** For `COc1ccc2nc3c(c(NCCCCCCNC(=O)[C@@H](N)Cc4c[nH]c5ccccc45)c2c1)CCCC3`, which IC50 [1] is on record?
**A.** Its IC50 is 0.94 µM.

**Q.** And the IC50 [2]?
**A.** The IC50 was 0.055 µM.

**Q.** And the IC50 [3]?
**A.** Its IC50 is 27 µM.

**Q.** And the IC50 [5]?
**A.** The IC50 was 23 µM.

**Q.** And the IC50 [6]?
**A.** The IC50 was 16 µM.

**Q.** With `c1ccc2c(NCCCCCCCNc3c4c(nc5ccccc35)CCCC4)c3c(nc2c1)CCCC3` as the compound, how does the IC50 [3] read?
**A.** The IC50 was 2.9 µM.

**Q.** Which IC50 [1] does the source give for `COc1ccc2nc3c(c(NCCCCCNC(=O)[C@@H](N)Cc4c[nH]c5ccccc45)c2c1)CCCC3.Cl.Cl` here?
**A.** The IC50 was 0.62 µM.

**Q.** What about the IC50 [2] of the same compound?
**A.** The IC50 was 0.19 µM.

**Q.** And the IC50 [3]?
**A.** Its IC50 is 26 µM.

**Q.** What about the permeability [4] of the same compound?
**A.** The permeability was “Impermeable”.

**Q.** What about the IC50 [5] of the same compound?
**A.** Its IC50 is 46 µM.

**Q.** Which IC50 [1] does the source give for `COc1ccc2nc3c(c(NCCCCNC(=O)[C@@H](N)Cc4c[nH]c5ccccc45)c2c1)CCCC3.Cl.Cl` here?
**A.** The IC50 was 12 µM.

**Q.** What about the IC50 [2] of the same compound?
**A.** The IC50 was 0.52 µM.

**Q.** What about the IC50 [3] of the same compound?
**A.** Its IC50 is 27 µM.

**Q.** What about the permeability [4] of the same compound?
**A.** The permeability was “Impermeable”.

**Q.** And the IC50 [5]?
**A.** The IC50 was 73 µM.

**Q.** For `N[C@@H](Cc1c[nH]c2ccccc12)C(=O)O` [TRYPTOPHAN], which IC50 [6] is on record?
**A.** The IC50 was 17000 µM.

**Q.** For `Cl.Cl.N[C@@H](Cc1c[nH]c2ccccc12)C(=O)NCCCNc1c2c(nc3ccccc13)CCCC2`, which IC50 [1] is on record?
**A.** The IC50 was 0.58 µM.

**Q.** What about the IC50 [2] of the same compound?
**A.** The IC50 was 0.04 µM.

**Q.** What about the IC50 [3] of the same compound?
**A.** Its IC50 is 32 µM.

**Q.** And the permeability [4]?
**A.** Its permeability is “Impermeable”.

**Q.** What about the IC50 [5] of the same compound?
**A.** Its IC50 is 116 µM.

**Q.** For `Cl.Cl.N[C@@H](Cc1c[nH]c2ccccc12)C(=O)NCCNc1c2c(nc3ccccc13)CCCC2`, which IC50 [1] is on record?
**A.** The IC50 was 0.73 µM.

**Q.** What about the IC50 [2] of the same compound?
**A.** The IC50 was 0.056 µM.

**Q.** And the IC50 [3]?
**A.** The IC50 was 33 µM.

**Q.** And the permeability [4]?
**A.** The permeability was “Impermeable”.

**Q.** And the IC50 [5]?
**A.** The IC50 was 200 µM.
